Marks after values point to notes of the source that are not given here. Blank lines part the entries; values can stand above or below the molecule they belong to.
Key:
CDSN : corneodesmosin = test: RT-qPCR gene expression in normal human keratinocytes: CDSN; format: cell-based; details: calcium chloride 1.5 mM, 48 h
Protocol: (§1) The effects of this compound were assessed via the RT-qPCR technique with the analysis of 12 target genes chosen for their importance in keratinocyte differentiation, antimicrobial defence and hydration. Calcium chloride (tested at 1.5 mM) is used as the reference compound (physiological agent inducing terminal epidermal differentiation). The cells are then collected for analysis of target expression (mRNA) by real-time PCR. Total RNAs were extracted with TriPure Isolation Reagent® according to the supplier's instructions (Roche Life Science, Meylan, France). They were assayed with the Bioanalyser 2100 (Agilent Technologies, Les Ulis, France). The mRNAs were reverse transcribed into complementary DNA with oligo(dT) and Transcriptor Reverse Transcriptase. PCR was performed in the LightCycler® System according to the supplier's instructions (Roche). The PCR mix used is SYBR green I. The results were analyzed with Microsoft Excel®. The relative quantity is calculated for each gene by normalizing with two reference genes, ribosomal protein L13A (RPL13A) and TATA box binding protein (TBP).

DEFB4A: β-defensin 2 = test: RT-qPCR gene expression in normal human keratinocytes: DEFB4A; format: cell-based; details: calcium chloride 1.5 mM, 48 h
Protocol: as §1

CLDN4: claudin 4 = test: RT-qPCR gene expression in normal human keratinocytes: CLDN4; format: cell-based; details: calcium chloride 1.5 mM, 48 h
Protocol: as §1

[1] = tested on: FABP5: epidermal fatty acid binding protein; test: RT-qPCR gene expression in normal human keratinocytes: FABP5; format: cell-based; details: calcium chloride 1.5 mM, 48 h
Protocol: as §1

CASP14: caspase 14 = test: RT-qPCR gene expression in normal human keratinocytes: CASP14; format: cell-based; details: calcium chloride 1.5 mM, 48 h
Protocol: as §1

TGM1: transglutaminase 1 = test: RT-qPCR gene expression in normal human keratinocytes: TGM1; format: cell-based; details: calcium chloride 1.5 mM, 48 h
Protocol: as §1

[2] = tested on: SULT2B1: cholesterol sulfotransferase; test: RT-qPCR gene expression in normal human keratinocytes: SULT2B1; format: cell-based; details: calcium chloride 1.5 mM, 48 h
Protocol: as §1

[3] = tested on: DEGS2: sphingolipid C4-hydroxylase/delta-4 desaturase; test: RT-qPCR gene expression in normal human keratinocytes: DEGS2; format: cell-based; details: calcium chloride 1.5 mM, 48 h
Protocol: as §1

FLG: filaggrin = test: RT-qPCR gene expression in normal human keratinocytes: FLG; format: cell-based; details: calcium chloride 1.5 mM, 48 h
Protocol: as §1

KLK7: type 7 kallikrein = test: RT-qPCR gene expression in normal human keratinocytes: KLK7; format: cell-based; details: calcium chloride 1.5 mM, 48 h
Protocol: as §1

TSLP = TSLP production by stimulated normal human epidermal keratinocytes (atopic dermatitis model, ELISA); format: cell-based
Protocol: (§2) The study is performed on normal human epidermal keratinocytes cultured under standard conditions (37° C., 5% CO2). The culture medium is standard (keratinocyte-SFM supplemented with 0.25 ng/ml epidermal growth factor (EGF), 25 μg/ml pituitary extract and 25 μg/ml gentamycin). The test medium is the same without growth factor.
(§3) To simulate an atopic dermatitis environment, keratinocytes are preincubated for 1 hour in the medium with or without (control) the compounds to be tested, the vehicle (water) or the positive control, bafilomycin (macrolide family) at 30 nM. […] After this preincubation, keratinocytes are stimulated for 24 hours by a mixture of TLR ligands (Poly I:C and PamC3) and inflammatory cytokines (IL-4 and IL-13) added to the cells. An unstimulated control condition is also done at the same time. The cells are incubated for 24 hours.
(§4) The culture supernatants are collected, centrifuged and frozen at −80° C. TSLP and IL-8 are quantified by ELISA.
(§5) Three independent experiments are conducted. Statistical analysis is determined by one-way ANOVA followed by Dunnett's post-hoc test.

IL-8 = IL-8 production by stimulated normal human epidermal keratinocytes (atopic dermatitis model, ELISA); format: cell-based
Protocol: as §2, §3, §4, §5

[4] = tested on: transcription factor NFκB; test: NFκB activation stimulated by TNFα in HaCat keratinocytes with luciferase reporter gene; format: cell-based, human; details: TNFα 0.3 ng/ml; for NFκB activation % Inh / NFκB activation RLU Mean: 5 hours
Protocol: The cell line used in this study is the HaCat line (human keratinocytes) stably transfected with the luciferase reporter gene.
These cells are cultured on 24-well plates under the same conditions as in Example 1. They are then preincubated for 60 minutes with the products to be tested, added to the culture medium in the form of a solution in water. A stimulant, TNFα (0.3 ng/ml, diluted in culture medium) is added to the cultures which are then incubated for 5 hours at 37° C. […] A positive control is used in this test, dexamethasone (synthetic glucocorticoid hormone, with an antiinflammatory and immunosuppressant effect, added to the culture medium in the form of a solution in water) tested at 2 μM in the culture medium. Note that 3 independent experiments were conducted. The Bright-Glo™ agent (which induces cell lysis and thus enables luciferase release) and its substrate (luciferin) are added before reading the luminescence. The raw data are analyzed by Excel. The intergroup comparison is performed by one-way ANOVA followed by Dunnett's post-hoc test.

[5] = pH ranging from 4 to 10 at ambient temperature; cited from earlier work
[6] = tested on: prostaglandin PG6KF1α production, HaCat line (human keratinocytes); test: PG6KF1α release by HaCat keratinocytes stimulated with calcium ionophore A23187 (ELISA); format: cell-based
Protocol: The cell line used in this study is the HaCat line (human keratinocytes).
The cells are cultured in DMEM (Dulbecco's Modified Eagle Medium) supplemented with foetal calf serum in an environment at 37° C. and 5% CO2 on 24-well plates. They are then preincubated for 60 minutes, still at 37° C., with the products to be tested dissolved in water. A stimulant the arachidonic acid pathway is added for 5 hours. This is the stimulation phase; the stimulant is the calcium ionophore A23187 (solution in 0.01% DMSO) used at 5 μM. […] After 5 hours of stimulation, still in the same medium, the culture supernatant of each well is drawn off, centrifuged at 3000 RPM then stored at −20° C. The production of prostaglandin PG6KF1α in culture supernatant is measured with the Euromedex Elisa kit according to the supplier's instructions. Statistical analysis is performed by ANOVA followed by Dunnett's post-hoc test. Note that 3 independent experiments were conducted. The results for each product and for each dose are averaged from measurements performed on 3 wells. Thus, the control group (with no stimulant) makes it possible to quantify basal PG6KF1α production.

[7] = dextran sulfate (Dextralip, 9000-20000 Da) 0.3 μg/ml, Poly I:C, PamC3, IL-4, IL-13
[8] = dextran sulfate (Dextralip, 9000-20000 Da) 0.3 μg/ml, Poly I:C, PamC3, IL-4, IL-13, listed as dextran sulfate
[9] = dextran sulfate (Dextralip, 9000-20000 Da) 3 μg/ml, Poly I:C, PamC3, IL-4, IL-13
[10] = dextran sulfate (Dextralip, 9000-20000 Da) 30 μg/ml, Poly I:C, PamC3, IL-4, IL-13
[11] = natural dextran sulfate (Dextralip, 9000-20000 Da) 0.3 mg/ml
[12] = natural dextran sulfate (Dextralip, 9000-20000 Da) 1 mg/ml
[13] = natural dextran sulfate (Dextralip, 9000-20000 Da) 3 mg/ml
[14] = natural dextran sulfate 9000-20000 Da (Dextralip) 10 μg/ml, A23187 5 μM 5 h
[15] = natural dextran sulfate 9000-20000 Da (Dextralip) 30 μg/ml, A23187 5 μM 5 h
[16] = natural dextran sulfate 9000-20000 Da (Dextralip) 100 μg/ml, A23187 5 μM 5 h
[17] = natural dextran sulfate 9000-20000 Da (Dextralip) 300 μg/ml, A23187 5 μM 5 h
[18] = natural dextran sulfate 9000-20000 Da (Dextralip) 1000 μg/ml, A23187 5 μM 5 h
[19] = natural dextran sulfate 9000-20000 Da (Dextralip) 3000 μg/ml, A23187 5 μM 5 h
[20] = synthetic dextran sulfate 4000-8000 Da 10 μg/ml, A23187 5 μM 5 h
[21] = synthetic dextran sulfate 4000-8000 Da 30 μg/ml, A23187 5 μM 5 h
[22] = synthetic dextran sulfate 4000-8000 Da 100 μg/ml, A23187 5 μM 5 h
[23] = synthetic dextran sulfate 4000-8000 Da 300 μg/ml, A23187 5 μM 5 h
[24] = synthetic dextran sulfate 4000-8000 Da 1000 μg/ml, A23187 5 μM 5 h
[25] = synthetic dextran sulfate 4000-8000 Da 3000 μg/ml, A23187 5 μM 5 h
[26] = indomethacin 0.1 μM, A23187 5 μM for 5 hours
[27] = bafilomycin 30 nM, stimulation by Poly I:C, PamC3, IL-4 and IL-13

Molecule: [Ca+2].[Cl-].[Cl-] [Calcium chloride]
CDSN Mean RQ (relative quantity) (CDSN : corneodesmosin): 1.8
DEFB4A Mean RQ (relative quantity) (DEFB4A: β-defensin 2): 118.0
CLDN4 Mean RQ (relative quantity) (CLDN4: claudin 4): 2.5
FABP5 Mean RQ (relative quantity) [1]: 6.9
CASP14 Mean RQ (relative quantity) (CASP14: caspase 14): 1.6
TGM1 Mean RQ (relative quantity) (TGM1: transglutaminase 1): 9.0
SULT2B1 Mean RQ (relative quantity) [2]: 14.0
DEGS2 Mean RQ (relative quantity) [3]: 3.0
FLG Mean RQ (relative quantity) (FLG: filaggrin): 4.5
KLK7 Mean RQ (relative quantity) (KLK7: type 7 kallikrein): 11.3

NFκB activation % Inh [4, 11]: does not reduce NFκB activation
NFκB activation RLU Mean [4, 11]: 27024 RLU
NFκB activation % Inh ([4]; natural dextran sulfate (Dextralip, 9000-20000 Da) 0.3 mg/ml, listed as Dex S.): −13%
NFκB activation % Inh [4, 12]: does not reduce NFκB activation
NFκB activation RLU Mean [4, 12]: 23229 RLU
NFκB activation % Inh ([4]; natural dextran sulfate (Dextralip, 9000-20000 Da) 1 mg/ml, listed as Dex S.): 3%
NFκB activation % Inh [4, 13]: 42%
NFκB activation RLU Mean [4, 13]: 13836 RLU
Molecule: Sodium dextran sulphate [Dextran sulfate]
TSLP production at 24 h % Inh (TSLP; [7]): 0%
TSLP production at 24 h Mean (TSLP; [7]): 247 pg/mL
TSLP production at 24 h % Inh (TSLP; [8]): does not induce reduction in TSLP production
TSLP production at 24 h % Inh (TSLP; [9]): 90%
TSLP production at 24 h Mean (TSLP; [9]): 34 pg/mL
TSLP production at 24 h % Inh (TSLP; [10]): 96%
TSLP production at 24 h Mean (TSLP; [10]): 19 pg/mL
Production of IL-8 at 24 h % Inh (IL-8; [7]): 0%
Production of IL-8 at 24 h Mean (IL-8; [7]): 63672 pg/mL
Production of IL-8 at 24 h % Inh (IL-8; [8]): not sufficient to inhibit IL-8 production
Production of IL-8 at 24 h % Inh (IL-8; [9]): 82** %
Production of IL-8 at 24 h Mean (IL-8; [9]): 10837 pg/mL
Production of IL-8 at 24 h % Inh (IL-8; dextran sulfate (Dextralip, 9000-20000 Da) 3 μg/ml, Poly I:C, PamC3, IL-4, IL-13, listed as dextran sulfate): more than 80%
Production of IL-8 at 24 h % Inh (IL-8; [10]): 100%
Production of IL-8 at 24 h Mean (IL-8; [10]): 170 pg/mL
stability in solutions [5]: high stability
PG6KF1α % Inh [6, 14]: 36%
PG6KF1α (pg/ml) Mean [6, 14]: 1878.6 pg/mL
PG6KF1α % Inh [6, 15]: 23%
PG6KF1α (pg/ml) Mean [6, 15]: 2113.4 pg/mL
PG6KF1α % Inh [6, 16]: 14%
PG6KF1α (pg/ml) Mean [6, 16]: 2287.5 pg/mL
PG6KF1α % Inh [6, 17]: 32%
PG6KF1α (pg/ml) Mean [6, 17]: 1950.9 pg/mL
PG6KF1α % Inh [6, 18]: 43%
PG6KF1α (pg/ml) Mean [6, 18]: 1737.6 pg/mL
PG6KF1α % Inh [6, 19]: 37%
PG6KF1α (pg/ml) Mean [6, 19]: 1843.8 pg/mL
PG6KF1α % Inh [6, 20]: 35%
PG6KF1α (pg/ml) Mean [6, 20]: 1536.5 pg/mL
PG6KF1α % Inh [6, 21]: 23%
PG6KF1α (pg/ml) Mean [6, 21]: 1719.7 pg/mL
PG6KF1α % Inh [6, 22]: 14%
PG6KF1α (pg/ml) Mean [6, 22]: 1848.5 pg/mL
PG6KF1α % Inh [6, 23]: 29%
PG6KF1α (pg/ml) Mean [6, 23]: 1626.6 pg/mL
PG6KF1α % Inh [6, 24]: 40%
PG6KF1α (pg/ml) Mean [6, 24]: 1462.5 pg/mL
PG6KF1α % Inh [6, 25]: 39%
PG6KF1α (pg/ml) Mean [6, 25]: 1486.2 pg/mL

Molecule: COc1ccc2c(c1)c(CC(=O)O)c(C)n2C(=O)c1ccc(Cl)cc1 [Indo, indomethacin, reference compound]
PG6KF1α % Inh [6, 26]: 33%
PG6KF1α (pg/ml) Mean [6, 26]: 839.9 pg/mL
PG6KF1α % Inh ([6]; indomethacin 0.1 μM, A23187 5 μM for 5 hours, listed as Indomethacin): a third

Molecule: CO/C1=C\C(C)=C\[C@@H](C)[C@@H](O)[C@@H](C)C/C(C)=C/C=C/[C@H](OC)[C@@H]([C@@H](C)[C@@H](O)[C@H](C)[C@@]2(O)C[C@@H](O)[C@H](C)[C@@H](C(C)C)O2)OC1=O [Bafilomycin, bafilomycin, reference compound]
TSLP production at 24 h % Inh (TSLP; [27]): 70* %
TSLP production at 24 h Mean (TSLP; [27]): 81 pg/mL
Production of IL-8 at 24 h Mean (IL-8; [27]): 26022 pg/mL

Molecule: C[C@@H]1C[C@H]2[C@@H]3CCC4=CC(=O)C=C[C@]4(C)[C@@]3(F)[C@@H](O)C[C@]2(C)[C@@]1(O)C(=O)CO [Dexa, dexamethasone, reference compound]
inhibition at 2 µM ([4]; Homo sapiens, HaCaT, 5 h, dexamethasone 2 μM, read-out: NFκB activation % Inh): > 40%
NFκB activation % Inh ([4]; dexamethasone 2 μM): 41%
NFκB activation RLU Mean ([4]; dexamethasone 2 μM): 14206 RLU

— patent US20220175820A1 (PIERRE FABRE DERMO-COSMETIQUE, priority 2019, published 2022)
